# In patent US11958869B2, “Ruthenium arene Schiff-base complexes and uses thereof” (CITY UNIVERSITY OF HONG KONG, priority 2021, dated 2024):
# Like-named read-outs stand apart in the source and are kept apart here.
# Key:
# MDA-MB-231 mammospheres [1] = experiment: Viability of MDA-MB-231 mammospheres, Alamar Blue assay (Table 1); assay type: cell-based; conditions: read-out: IC50 (μM), growth of MDA-MB-231 mammospheres
# MCF-7 = experiment: cells; assay type: cell-based; conditions: read-out: IC50 (μM) MCF-7 72 h
# Method: (§1) Cells were seeded in 96-well plates and maintained for 14-16 hours, then were treated with dimethylsulfoxide (DMSO) or test compound at various concentrations (i.e., 0.312, 1.25, 5, 20 μM) for 72 hrs. The cells were then washed with phosphate buffer saline (PBS) twice, added a medium containing 3-(4,5-dimethylthiazol-2-yl)-2,5-diphenyltetrazolium bromide (MTT) at a final concentration of 0.5 mg/mL, and incubated for 4 hr at 37° C. in a humidified incubator containing 5% CO2 in air. Cells having functional succinate dehydrogenase of mitochondria would convert MTT to formazan. Then, the medium was replaced with 100 μL of DMSO for 30 min at room temperature, and the 96-well plate was read by an ELISA reader at 550 nm to get the absorbance density values. The IC50 values of death cell lines were calculated accordingly.
# (§2) The Ru^TEN complexes of Example 1 were evaluated for their anti-proliferative properties in two breast cancer cell lines, namely, MCF-7 and MDA-MB-231 cells via MTT assay. […] MCF-7 is a chemotherapy-responsive breast cancer cell line of luminal subtype with high expression of estrogen receptor (ER), whereas MDA-MB-231 is a triple negative breast cancer (TNBC) or basal-like breast cancer cell ine. TNBC is defined as highly invasive cancer that lacks expression of ER, progesterone receptor (PR) and Her-2; it has one of the worst outcomes among all subtypes of breast cancers. The aggressive nature of TNBC may be related to the presence of breast cancer stem cells within the tumor; therefore, MDA-MB-231 cells are often used as a model of mammary cancer stem cells.
# (§3) The cytotoxicity of Ru^TEN complexes of Example 1 was compared to that of cisplatin or oxaliplatin, which were known to induce their anticancer effects by the mode of action different from ER stress. Three CSC-selective organic compounds, salinomycin, etoposide and abamectin, were also used for comparison. Briefly, MCF-7 and MDA-MB-231 cells were respectively treated with increasing concentrations of compounds of interest for 24 or 72 hrs and then the cell viability was measured.
# MDA-MB-231 = experiment: Anti-proliferative activity (MTT assay), MDA-MB-231; assay type: cell-based
# Method: as §1, §2, §3
# MDA-MB-231 mammospheres [2] = experiment: Cytotoxicity in MDA-MB-231 mammospheres (Table 2); assay type: cell-based; conditions: read-out: IC50 (μM) MDA-MB-231 mammospheres 72 h
# MCF-7 mammospheres = experiment: Mammosphere formation assay, MCF-7; assay type: cell-based; conditions: for Number of MCF-7 mammospheres / Size (μm) of MCF-7 mammospheres: primary mammospheres grown 96 hr, incubated with compound 72 hrs, >50 μm analyzed
# Method: (§4) Since the breast cancer stem cells formed a mass of colonies in the form of floating spheres without attaching to a surface of a plate, the size and number of the masses were observed by a mammosphere formation assay to determine a cancer-stem-cell-specific effect.
# (§5) Single-cell suspension was cultured at a density of 1,000 to 15,000 cells/well using a MammoCult™ Human Medium kit (Stemcell Technologies Inc Vancouver, CA), and the spherical cells were counted and observed under a microscope.
# (§6) The mammosphere assay is based on the concept that when cells proliferate in three-dimensional spheroid structures, only cancer cells with stem-like characteristics are able to evade anoikis.
# MDA-MB-231 mammospheres [3] = experiment: Mammosphere formation assay, MDA-MB-231 primary; assay type: cell-based; conditions: for Number of MDA-MB-231 mammospheres / Size (μm) of MDA-MB-231 mammospheres: primary mammospheres grown 96 hr, incubated with compound 72 hrs, >50 μm analyzed; for decrease in number of MDA-MB-231 mammospheres / decrease in size of MDA-MB-231 mammospheres: versus control
# Method: as §4, §5, §6
# [4] = tested on: MDA-MB-231 secondary mammospheres; experiment: Secondary mammosphere formation (self-renewal), MDA-MB-231; assay type: cell-based; conditions: for Number of MDA-MB-231 secondary mammospheres / Size (μm) of MDA-MB-231 secondary mammospheres: from drug-treated primary mammospheres, grown in drug-free conditions for 7 days; for propensity to form secondary mammospheres: single cells from drug-treated primary mammospheres, 7 days drug-free, FIG. 2
# Method: To this purpose, drug-treated primary MDA-MB-231 mammospheres were dissociated into single cell suspensions and incubated for 7 days in ultralow attachment drug-free conditions.
# MDA-MB-231 mammospheres [5] = experiment: Invasion / dispersion of spheroids into 3D collagen; assay type: cell-based; conditions: cells incubated with compound 72 hr, FIG. 4
# Text: CSCs are associated with highly invasive phenotype and it is believed that this subset of cancer cells gives rise to metastases. In order to monitor the dissemination of MCF-7 and MDA-MB-231 breast cancer spheroids, the spheroids were embedded into three-dimensional (3D) collagen scaffold using Aim Biotech 3D cell culture chips. Collagen with spheroids was introduced into the central region of the microfluidic system where it polymerized via thermal cross-linking. Cell culture media was introduced into media channels forcing spheroids to move through collagen towards the media.
# Thus, whether Ru^TEN complexes and salinomycin affected the invasive properties of MDA-MB-231 spheroids was then investigated. To this purpose, MDA-MB-231 monolayer cells were incubated with compounds of interest (e.g., Ru^TEN complexes of Examplel or salinomycin) for 72 hr, then the delamination was allowed to proceed for over 28 hr. Results are depicted in FIG. 4.
# [6] = tested on: human hepatocellular carcinoma LM3 xenografts; experiment: Hepatocellular carcinoma LM3 xenograft model; assay type: in vivo, athymic NCr nude mice; conditions: all doses tested, FIG. 8
# Method: (§7) Hepatocellular carcinoma LM3 cells (5×10^4 cells/20 μL) or breast cancer MDM-BA-231 cells (5×10^4 cells/20 μL) were implanted subcutaneously in the flanks of athymic NCr nude mice. A total of 40 male NCr nude mice (8 weeks or older weighing 20-24 g or more) were used for the tumor xenografts. The tested compounds (e.g., Ru^TEN 1, Ru^TEN 3, or salinomycin) were intraperitoneally administered at the dose of […] twice per week. Tumor volume was determined by image analysis. The mice in the control group received corresponding injection of 0.1% DMSO. For tumor-bearing NCr nude mice during the 4-weeks (or 28 days) experiment, the % body weight changes refer to: (the total weight on reading day/the total weight on day treatment started)×100. All mice were sacrificed at the end of the experiment (i.e., by the end of 28 days), and tissues including lung, liver, tumor, heart, brain, kidneys, spleen and colon were harvested, and checked for any sign of cancer metastasis.
# [7] = tested on: ALDHbright subpopulation of MDA-MB-231 cells; experiment: ALDEFLUOR assay (ALDH activity); assay type: cell-based; conditions: versus control, FIG. 3
# Method: The cells were stained with […] bodipy-aminoacetaldehyde (BAAA), and then cultured at 37° C. for 45 minutes. An ALDH1 inhibitor, diethyl aminobenzaldehyde (DEAB), was used as the negative control. The stained cells were assayed using BD FACS Aria III. In this case, the positive fluorescent ALDH1-expressed cells (ALDH+) were detected in a green fluorescent channel (520 to 540 nm).
# While CD44+/CD24−/low phenotype has often been associated with breast CSC/progenitor cell features, yet there is no correlation between the presence of CD44+/CD24−/low cells and clinical outcome and formation of distant metastases. It is the presence of aldehyde dehydrogenase (ALDH) bright cells which separates highly tumorigenic CD44+/CD24−/low/ALDHbright population from non-tumorigenic cells. Unlike CD44+/CD24−/low, ALDH is a predictor of metastasis and is associated with a poor clinical outcome. The main role of ALDH enzymes is the detoxification of aldehydes generated in various metabolic processes into carboxylic acids. However, several ALDH isoforms are involved in retinoic acid signaling and this particular function was linked to the “stemness” of CSCs. The functional activity of ALDHs can be accurately determined by ascertaining the cellular conversion of […] (BAAA) into a fluorescent molecule BODIPY-aminoacetate (BAA). ATP-binding cassette (ABC)-transporter inhibitors in the assay buffer prevent the efflux of BAA from the cells, resulting in the accumulation of BAA in cytoplasm.
# [8] = tested on: human MD-MBA-231 breast cancer xenografts; experiment: Breast cancer MDA-MB-231 xenograft model; assay type: in vivo, athymic NCr nude mice; conditions: doses tested, FIG. 11
# Method: as §7
# Results are depicted in FIGS. 9 to 11.
# [9] = Acute toxicity, tolerated dose in Balb/c mice; assay type: in vivo
# Method: In this example, Ru^TEN3 was subjected to in vivo studies with Balb/c mice. Various treatment regimens were explored to define the optimally tolerated dose of Ru^TEN3 in vivo. […] The body weight changes were recorded.
# [10] = Ru biodistribution in tumor-bearing mice; assay type: in vivo; conditions: FIG. 6
# Text: The Ru biodistribution in tumor-bearing mice treated with Ru^TEN3 was also investigated.
# [11] = 24 h, MTT, read-out: IC50 (μM) MDA-MB-231 24 h
# [12] = 72 h, MTT, read-out: IC50 (μM) MDA-MB-231 72 h
Compound,IC50 (MDA-MB-231 mammospheres [1]),"IC50 (MCF-7; 72 h, MTT)",IC50 (MDA-MB-231; [11]),IC50 (MDA-MB-231; [12]),IC50 (MDA-MB-231 mammospheres [2]; 72 h),Number of MCF-7 mammospheres (MCF-7 mammospheres),Size (μm) of MCF-7 mammospheres (MCF-7 mammospheres),Number of MDA-MB-231 mammospheres (MDA-MB-231 mammospheres [3]),Size (μm) of MDA-MB-231 mammospheres (MDA-MB-231 mammospheres [3]),decrease in number of MDA-MB-231 mammospheres (MDA-MB-231 mammospheres [3]),decrease in size of MDA-MB-231 mammospheres (MDA-MB-231 mammospheres [3]),Number of MDA-MB-231 secondary mammospheres [4],Size (μm) of MDA-MB-231 secondary mammospheres [4],propensity to form secondary mammospheres [4],dispersion of cells into collagen after 4 hr (MDA-MB-231 mammospheres [5]),dispersion of cells into collagen after 28 hr / entire incubation period (MDA-MB-231 mammospheres [5]),body weight of LM3 tumor-bearing mice [6],decrease in number of MCF-7 mammospheres (MCF-7 mammospheres; versus control),body weight / toxicity in MDA-MB-231 tumor-bearing mice [8],also measured
"CC(C)c1cc(C(C)C)cc(C(C)C)c1.COc1ccc([N+]2=Cc3ccc4ccccc4[n+]3[Ru-]2[Cl])cc1.[Cl-] [Ru^TEN1, [(η6-1,3,5-triisopropybenzene)RuCl(4-methoxy-N-(2-quinolinyl-methylene)-aniline)]Cl]",2.2 µM,0.68 ± 0.23 µM,1.2 ± 0.1 µM,0.28 ± 0.1 µM,1.4 ± 0.1 µM,238 ± 86,130 ± 15 μm,103 ± 41,93 ± 29 μm,20%,18%,102 ± 28,69 ± 3 μm,drastically reduced propensity to form secondary mammospheres,did not exhibit significant dispersion,only slight dispersion,neither Ru^TEN1 nor Ru^TEN3 had caused lost in body weight,–,–,–
"CC[C@@H](C(=O)[C@@H](C)[C@@H](O)[C@H](C)[C@@H]1O[C@@H]([C@@H](CC)C(=O)O)CC[C@@H]1C)[C@H]1O[C@]2(C=C[C@@H](O)[C@]3(CC[C@@](C)([C@H]4CC[C@](O)(CC)[C@H](C)O4)O3)O2)[C@H](C)C[C@@H]1C [Saliomycin, salinomycin]",–,–,–,–,–,176 ± 73,117 ± 21 μm,87 ± 28,84 ± 25 μm,30%,30%,224 ± 74,82 ± 8 μm,only slight changes in size and number of mammospheres,did not exhibit significant dispersion,only slight dispersion,–,33%,low toxicity,"IC50 (MCF-7; Homo sapiens, MCF7, 72 h): 0.51 ± 0.03 µM; IC50 (MDA-MB-231; Homo sapiens, MDA-MB-231, 24 h, read-out: IC50 (μM) MDA-MB-231 24 h): 31 ± 4 µM; IC50 (MDA-MB-231; Homo sapiens, MDA-MB-231, 72 h, read-out: IC50 (μM) MDA-MB-231 72 h): 0.56 ± 0.09 µM; IC50 (MDA-MB-231 mammospheres [2]; Homo sapiens, MDA-MB-231, 72 h): 8.3 ± 2.4 µM; decrease in size of MCF-7 mammospheres (MCF-7 mammospheres; versus control): 9%; reduction of ALDHbright sub-population [7]: 89%"
"[(η6-1,3,5-triisopropybenzene)RuCl(3-chloro-N-(2-quinolinylmethylene)-aniline)]Cl [Ru^TEN3]",2.7 µM,4.4 ± 0.4 µM,4.5 ± 0.8 µM,1.5 ± 0.3 µM,1.7 ± 0.3 µM,183 ± 32,122 ± 16 μm,50 ± 21,76 ± 19 μm,35%,60%,81 ± 9,67 ± 4 μm,drastically reduced propensity to form secondary mammospheres,–,did not migrate from the spheroids,neither Ru^TEN1 nor Ru^TEN3 had caused lost in body weight,30%,low toxicity,"body weight and condition ([9]; 5 μmol/kg intraperitoneally twice a week for 33 days): did not demonstrate any weight loss; body weight and condition ([9]; 10 μmol/kg intraperitoneally twice a week for 33 days): did not demonstrate any weight loss; body weight and condition ([9]; 20 μmol/kg intraperitoneally twice a week): experienced severe pain, stopped moving, thus were euthanized; Ru accumulation in tissues [10]: highest Ru accumulation was observed in spleen and liver, followed by kidney and colon; Ru content in the brain [10]: very low"
